Consider nine molecules from article PMC7144022, “Quinolinecarboxamides Inhibit the Replication of the Bovine Viral Diarrhea Virus by Targeting a Hot Spot for the Inhibition of Pestivirus Replication in the RNA-Dependent RNA Polymerase” (Molecules, 2020).

Data set [1] addresses T1, BVDV (NADL) RNA-dependent RNA polymerase (RdRp) (Bovine viral diarrhea virus, UniProt P19711).
T1 construct: BVDV (NADL) RNA-dependent RNA polymerase (RdRp) was expressed and purified; made in house
Description: RNA-dependent RNA polymerase assay, poly(C) template. Type of data set: biochemical. The note with it: purified RdRp; for effect on the activity of the viral polymerase: up to 500 µM. The protocol: BVDV (NADL) RNA-dependent RNA polymerase (RdRp) was expressed and purified, as described before. […] In brief, the purified BVDV polymerase (100 nM) was mixed with 100 µM GTP (containing 8.3 µM of [^3H]GTP, Perkin Elmer) and increasing concentration of the inhibitor (0.2 µM, 0.7 µM, 2 µM, 6 µM, 19 µM, 56 µM, 165 µM or 500 µM) in 50 mM Hepes pH 8.0, 10 mM KCl, 10 mM DTT, 1 mM MgCl2, 2mM MnCl2, and 0.5% igepal (Sigma). The enzyme mix and inhibitors were pre-incubated, in order to favor enzyme-inhibitor interactions before RNA binding. Reactions were started by the addition of 100 nM of poly(C) (about 500 nt in size) template. Reactions were incubated at 30 °C and stopped by addition of 50 mM EDTA. Samples were transferred onto DE-81 filters, washed with 0.3 M ammonium formate solution, and dried. Radioactivity bound to the filter was determined by liquid scintillation counting.

Data set [2] deals with T1, BVDV (NADL) RNA-dependent RNA polymerase (RdRp). The note with it: reference compounds; cited from earlier work.
The nature of data set [3]: Cytotoxicity assay, proliferation of exponentially growing MDBK cells (MTS/PMS). The note with it: bovine. Type of data set: cell-based, bovine. On the procedure: (§1) Assays were carried out, as described previously.
For another data set, the system named is BVDV-1 (strain NADL). Description: microbe, parasite or virus in culture. Type of data set: cell-based, bovine viral diarrhea virus (BVDV). The note with it: Bovine viral diarrhea virus isolates and strains; RT-qPCR, MDBK cells.
The target of data set [4] is BVDV WT replication complexes (Bovine viral diarrhea virus, UniProt P19711). The experiment in a line: Replication complex (RC) assay, wild-type BVDV. The note with it: for effect on activity of BVDV WT replication complexes: RCs isolated 14 h post-infection. Format: biochemical. On the procedure: (§2) The replication complex (RC) assay is similar to the one described before. In brief, BVDV-infected MDBK cells were suspended in an ice-cold hypotonic buffer A (10 mM Tris, 10 mM NaCl pH 7.8) and were further disrupted by 50 strokes with a Dounce homogenizer. The disrupted cells were pelleted by centrifugation at 1,000× g for 5 min at 4 °C. The supernatant fraction, containing cytoplasmic material and plasma membranes, was concentrated by high-speed centrifugation at 200,000× g for 20 min at 4 °C. The pellet was resuspended in 120 µL of hypotonic buffer B (10 mM Tris, 10 mM NaCl pH 7.8 and 15% glycerol) and used for an RNA polymerase assay. Replicase reactions were carried out, as described before, with some modifications. The [α-^33P]UTP (3,000 mCi/mmol) was replaced by [α-^33P]CTP (3,000 mCi/mmol). The following incubation, RNA extraction, RNA analysis, and quantification were performed, as previously described.

Data set [5] relates to classical swine fever virus (CSFV). Type of data set: cell-based.
A further data set concerns hepatitis C virus. The experiment in a line: In vitro activity against hepatitis C virus. Type of data set: cell-based.
Data set [6] concerns panel of unrelated RNA and DNA viruses. Description: Activity against a panel of unrelated RNA and DNA viruses. The note with it: data not shown. Type of data set: cell-based.
The test system of another data set is BVDV NADL virus. Description: CPE-based antiviral assay, BVDV NADL in MDBK cells (MTS/PMS). The note with it: for S.I.: selectivity index, CC50 vs EC50; for fold increase: sheet CSFCII#, potency relative to TO502-2403 (EC50 0.2 µM).
The subject of data set [7] is RCs from MDBK cells infected with the TO505-6180res virus. The experiment in a line: Replication complex (RC) assay, TO505-6180res BVDV. Format: biochemical, bovine viral diarrhea virus (BVDV). The note with it: RCs from TO505-6180res infected MDBK cells. On the procedure: as §2
For the next data set, the system named is MDBK cells. The experiment in a line: Cytotoxicity assay, proliferation of exponentially growing MDBK cells (MTS/PMS). Format: cell-based, bovine. The note with it: 5 days. On the procedure:
as §1

The mark [8] stands for this setting: Bovine viral diarrhea virus isolates and strains, MDBK, 72 h.
The mark [9] stands for this setting: protection against BVDV (NADL, wild type)-induced CPE in MDBK cells, 3 days.

Values joined by “and” are separate entries in the source; they are usually repeats but may differ in a detail not shown here. Equal values may be shown once. A value given as a limit tells only on which side of the number the result lay.

Sequence of BVDV WT replication complexes (P19711 3270-3988, one chain of several): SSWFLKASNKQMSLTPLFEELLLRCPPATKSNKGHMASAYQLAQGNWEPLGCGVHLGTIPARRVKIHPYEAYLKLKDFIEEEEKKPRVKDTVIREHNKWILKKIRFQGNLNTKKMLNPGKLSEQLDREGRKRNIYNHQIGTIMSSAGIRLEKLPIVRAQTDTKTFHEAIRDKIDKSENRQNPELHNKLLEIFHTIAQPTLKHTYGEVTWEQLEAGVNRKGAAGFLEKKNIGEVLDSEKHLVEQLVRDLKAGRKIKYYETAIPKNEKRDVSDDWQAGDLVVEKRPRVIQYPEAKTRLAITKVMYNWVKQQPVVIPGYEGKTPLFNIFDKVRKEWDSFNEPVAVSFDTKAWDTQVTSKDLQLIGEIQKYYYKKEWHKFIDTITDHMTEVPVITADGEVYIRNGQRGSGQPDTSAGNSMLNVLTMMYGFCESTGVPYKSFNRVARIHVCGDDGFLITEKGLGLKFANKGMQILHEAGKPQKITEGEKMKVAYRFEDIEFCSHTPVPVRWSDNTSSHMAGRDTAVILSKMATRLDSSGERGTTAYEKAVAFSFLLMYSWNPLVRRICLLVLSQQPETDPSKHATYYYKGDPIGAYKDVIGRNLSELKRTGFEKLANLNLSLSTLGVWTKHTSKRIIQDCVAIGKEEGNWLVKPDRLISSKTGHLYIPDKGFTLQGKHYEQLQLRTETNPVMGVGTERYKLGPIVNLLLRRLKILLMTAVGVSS
T1 sequence (P19711 3270-3988): as the sequence (P19711 3270-3988, one chain of several) above

For the molecule `Nc1nc2c(ncn2[C@@H]2O[C@H](COP(=O)(O)OP(=O)(O)OP(=O)(O)O)C[C@H]2O)c(=O)[nH]1` [3′-dGTP, 3′-deoxyguanosine-5’-triphosphate, reference compound], in [1] (read-out: 50% inhibitory concentration for the BVDV polymerase activity), the IC50 was less than 1000 nM.
Turning to `CCOC(=O)c1cc2ccn3c(c-2n1)N=C(C)C3` [AG110, ethyl 2-methylimidazo[1,2-a]pyrrolo[2,3-c]pyridin-8-carboxylate], in data set [2], the “inhibitory effect on the highly purified BVDV RdRp” value (shortened to “inhibitory effect”) was “none of these compounds had any inhibitory effect”.
As for `Brc1ccc(Cn2ccc3nc(-c4ccccc4)nc-3c2)cc1` [BPIP, 5-[(4-bromophenyl)methyl]-2-phenyl-5H-imidazo[4,5-c]pyridine], in data set [2], the “inhibitory effect” value is “none of these compounds had any inhibitory effect”.
As to `Nc1nc2c(cnn2CCCc2ccc3c(c2)OCO3)c2nc(-c3ccco3)nn12` [LZ37, 7-[3-(1,3-benzodioxol-5-yl)propyl]-2-(2-furyl)-7H-pyrazolo[4,3-e][1,2, 4]triazolo[1,5-c]pyrimidin-5-amine], in data set [2], the “inhibitory effect” value is “none of these compounds had any inhibitory effect”.
In general, CC50 refers to the concentration that lowers cell viability or growth by half. One may read the EC50 as the concentration at which the effect is half-maximal. A higher EC50 goes with weaker potency. The inhibition is the drop in the measured response relative to a control, in per cent. With `O=C(Nc1ccn(-c2ccccc2)n1)c1cc(-c2ccccc2)nc2ccccc12` [TO502-2403, 2-phenyl-N-(1-phenyl-1H-pyrazol-3-yl)-4-Quinolinecarboxamide], in [3], the CC50 at 5 days was greater than 100000 nM. Besides, the EC50 is 60 nM and 50 nM with BVDV-1 (strain NADL); 200 nM with BVDV NADL virus (setting [8]). Moreover, the “effect on the activity of the viral polymerase” value in data set [1] is “no effect”. Moreover, in data set [4], the “effect on activity of BVDV WT replication complexes” value is “inhibited the activity of the BVDV WT replication complexes in a dose-dependent manner”. Also, the inhibition at 10 µM in data set [4] (at 10 µM, read-out: maximum inhibition of BVDV WT replication complex activity) is roughly 90%. The “inhibition of in vitro CSFV replication” value in data set [5] was “inhibited”. Further, in the data set with hepatitis C virus, the “in vitro activity against hepatitis C virus” value was “inactive”. The “activity against a panel of unrelated RNA and DNA viruses” value in data set [6] was “inactive”.
Molecule `Cc1ccc2nc(NC(=O)c3cc(-c4ccco4)nc4ccccc34)sc2c1` [TO505-6180, 2-(2-furanyl)-N-(6-methyl-2-benzothiazolyl)-4-Quinolinecarboxamide] showed a CC50 at 5 days in data set [3] greater than 100000 nM. The EC50 in the data set with BVDV-1 (strain NADL) is 30 nM and 60 nM; with BVDV NADL virus (setting [8]), 70 nM. Besides, the “effect on the activity of the viral polymerase” value in data set [1] is recorded as “no effect”. In addition, the “effect on activity of BVDV WT replication complexes” value in data set [4] is recorded as “inhibited the activity of the BVDV wt RCs in a dose-dependent manner”. Also, in data set [7], the “fold less susceptible than BVDV wt RCs” value lay within 3 to 4 fold. Further, the “inhibition of in vitro CSFV replication” value in data set [5] is “inhibited”. Further, the “in vitro activity against hepatitis C virus” value in the data set with hepatitis C virus is “inactive”. Also, the “activity against a panel of unrelated RNA and DNA viruses” value in data set [6] was “inactive”.
Take “Cc1cc(nn1)NC(=O)c3cc(nc2ccccc23)c4ccccc4 [CSFC-20]”: the cytotoxic concentration (CC50) in the data set on MDBK cells was greater than 100000 nM. In the data set on BVDV NADL virus, the S.I. came out at 1 and the fold increase came out at 0.002.
Consider “Cc1cccc2sc(nc12)NC(=O)c4cc(nc3ccccc34)c5cccn5 [CSFC-59]”, for which the CC50 in the data set on MDBK cells was greater than 100000 nM. This molecule also registered a half-maximal effective concentration (EC50) in the data set with BVDV NADL virus (setting [9]) of 54000 nM. Besides, in the data set on BVDV NADL virus, the S.I. came out at 2 and the fold increase worked out at 0.0037.
“O=C(Nc2cc(c1ccccc1)nn2)c4cc(nc3ccc(F)cc34)c5cccs5 [CSFC-124]” showed a 50% cytotoxic concentration (CC50) with MDBK cells greater than 100000 nM. In addition, in the data set with BVDV NADL virus (setting [9]), the EC50 came out at 22000 nM. For the same molecule, in the data set with BVDV NADL virus, the S.I. stood at 5 and the fold increase worked out at 0.00909.
